Assay results published in PMC12751338, “Biochemical and functional characterization of orf virus decapping protein OV71” (Virology Journal, 2025).

Columns and labels:
OV71 (ORFV071; his-OV71) = target: T1, OV71 (ORFV071; his-OV71) (Orf virus strain SA00, UniProt Q6TVP9); assay: competition in decapping of radiolabeled capped RNA, TLC; type: biochemical; settings: 206-nt cap-labeled RNA substrate; 4 pmol enzyme; 2 mM MgCl2, 0.5 mM MnCl2, pH 7.5, 37 °C; added product as competitor
T1 construct: His-tagged, pET24a (NdeI/XhoI), E. coli BL21(DE3), Talon cobalt resin; approx. 25 kDa

[1] = tested on: his-OV71 (Orf virus (Taiping strain)); assay: competition; settings: EMSA: 20 mM HEPES, 10 mM EDTA, 1 M KCl, 1 mM DTT, 80 ug/mL BSA, 50% glycerol (so in the source), on ice 15 min, 0.05 pmol RNA. Pulldown: 100 mM K acetate

| Compound | relative decapping ratio (OV71 (ORFV071; his-OV71)) | IC50 [1] |
| --- | --- | --- |
| C[n+]1cn([C@@H]2O[C@H](COP(=O)(O)OP(=O)(O)O)[C@@H](O)[C@H]2O)c2nc(N)[nH]c(=O)c21 [m^7GDP] | decapping product m^7GDP modestly inhibited the decapping (Fig. 3D and E), indicating weak affinity |  |
| 206 nt uncapped RNA competitor |  | 40 pmol |
